Laboratory results reported in patent US10351601B2, “CXCR4 antagonists and methods of use” (Mainline Biosciences, priority 2016, dated 2019).
Read-outs that look alike come from different tables or passages of the source. Bridge positions count the residues as written; N and C are the ends. Square brackets hold non-standard residues; d marks the D form. Peptide text beside a SMILES is read from it. * marks the point of attachment. 2Nal = N[C@@H](Cc1ccc2ccccc2c1)C(=O)O; Lys(iPr) = CC(C)NCCCC[C@H](N)C(=O)O; hCys = N[C@@H](CCS)C(=O)O; Bz = O=C(c1ccccc1)*; Mpa = O=C(O)CCS

Target: T1, Human chemokine receptor CXCR4 (Homo sapiens, UniProt P61073)
T1 construct: expressed in transfected cells; host or cells: Chem-1 cells (membranes)
T1 sequence (P61073 whole entry): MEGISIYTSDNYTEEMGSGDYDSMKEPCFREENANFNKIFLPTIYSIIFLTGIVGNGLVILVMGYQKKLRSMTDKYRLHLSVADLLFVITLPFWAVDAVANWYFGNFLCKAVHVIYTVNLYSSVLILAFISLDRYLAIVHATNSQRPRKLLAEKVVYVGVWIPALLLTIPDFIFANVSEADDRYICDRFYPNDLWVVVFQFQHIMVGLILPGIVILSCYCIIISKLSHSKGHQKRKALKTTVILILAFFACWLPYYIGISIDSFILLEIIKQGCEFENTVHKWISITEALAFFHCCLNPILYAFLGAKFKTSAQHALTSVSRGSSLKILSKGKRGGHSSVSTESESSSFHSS
Experiment: Human CXCR4/125I-SDF-1α binding inhibition assay
Method: “Ki” values are calculated using IC50 values determined in the CXCR4/^125I-SDF-1α binding assay described below by employing equation 7.22 of Enzymes, A Practical Introduction to Structure, Mechanism, and Data Analysis, Robert A. Copeland, Wiley-VCH, New York, 1996, page 207.
Human CXCR4/^125I-SDF-1α Binding Inhibition Assay:
Human chemokine receptor CXCR4 expressed in Chem-1 cells were used in modified HEPES buffer pH 7.4. A […] (Membrane protein may change from lot to lot, the concentration used were adjusted as necessary), aliquot was incubated with 0.03 nM [^125I]SDF-1α for 90 minutes at 25° C. Non-specific binding was estimated in the presence of 30 nM SDF-la. Membranes were filtered and washed, filters were then counted to determine [^125I]SDF-1α specifically bound. Compounds were screened starting at 10 μM with 11-point dilutions (Valenzuela-Fernandez A, et al. J Biol Chem. 277(18):15677, 2002).

[1] = calculated from IC50 of the CXCR4/125I-SDF-1α binding assay, read-out: Binding Kb

Row | SMILES | Kb [nM] | Kb [1] [nM] | IC50 (CXCR4 expressed in Chem-1 cells, 0.03 nM [125I]SDF-1α, 90 minutes at 25° C., HEPES buffer pH 7.4, read-out: Binding IC50) [nM] | IC50 [nM]
1 | CC(C)NCCCC[C@H](NC(=O)[C@@H]1CCSSC[C@H](NC(=O)c2ccccc2)C(=O)N[C@@H](Cc2ccc(O)cc2)C(=O)N[C@@H](CCCCNC(C)C)C(=O)N[C@H](CCCNC(=N)N)C(=O)N[C@@H](Cc2ccc3ccccc3c2)C(=O)NCC(=O)N1)C(=O)NCC(N)=O [Example 12, Benzoyl-cyclo[Cys-Tyr-Lys(iPr)-(D-Arg)-2Nal-Gly-hCys]-Lys(iPr)-Gly-NH2] (Bz-CY[Lys(iPr)][dR][2Nal]G[hCys][Lys(iPr)]G-NH2; disulfide 1-7) | 0.21 | – | – | –
2 | CC(C)NCCCC[C@@H]1NC(=O)[C@H](Cc2ccc(O)cc2)NC(=O)CCSSC[C@@H](C(=O)N[C@H](CCCNC(=N)N)C(=O)NCC(=O)N[C@H](Cc2ccccc2)C(=O)NCC(N)=O)NC(=O)CNC(=O)[C@H](Cc2ccc3ccccc3c2)NC(=O)[C@@H](CCCNC(=N)N)NC1=O [Example 4, Cyclo[Mpa-Tyr-Lys(iPr)-(D-Arg)-2Nal-Gly-Cys]-(D-Arg)-Gly-(D-Phe)-Gly-NH2] ([Mpa]Y[Lys(iPr)][dR][2Nal]GC[dR]G[dF]G-NH2; disulfide 1-7) | – | 0.21 | – | –
3 | N=C(N)NCCC[C@@H]1NC(=O)CCSSC[C@@H](C(=O)N[C@@H](CCCNC(=N)N)C(=O)NCC(=O)N[C@H](Cc2ccccc2)C(=O)NCC(N)=O)NC(=O)CNC(=O)[C@H](Cc2ccc3ccccc3c2)NC(=O)[C@H](CCCNC(=N)N)NC(=O)[C@H](Cc2ccc(O)cc2)NC1=O [Example 5, Cyclo[Mpa-Arg-Tyr-Arg-2Nal-Gly-Cys]-Arg-Gly-(D-Phe)-Gly-NH2] ([Mpa]RYR[2Nal]GCRG[dF]G-NH2; disulfide 1-7) | – | > 1000 | > 1000 | –
4 | CCNC(=O)CNC(=O)[C@H](CCCCNC(C)C)NC(=O)[C@@H]1CSSCC[C@H](NC(=O)c2ccccc2)C(=O)N[C@@H](Cc2ccc(O)cc2)C(=O)N[C@@H](CCCCNC(C)C)C(=O)N[C@H](CCCNC(=N)N)C(=O)N[C@@H](Cc2ccc3ccccc3c2)C(=O)NCC(=O)N1 [Example 14, Benzoyl-cyclo[hCys-Tyr-Lys(iPr)-(D-Arg)-2Nal-Gly-Cys]-Lys(iPr)-Gly-NH(Et)] (Bz-[hCys]Y[Lys(iPr)][dR][2Nal]GC[Lys(iPr)]G-NHEt; disulfide 1-7) | 0.39 | – | – | 1.3
